The NIST ThermoML archive (doi:10.1021/acs.jced.7b00750)
Numbers after ± are expanded uncertainties.

Test: xn = mol fraction of the nth substance listed
Details: 100 kPa, Liquid, Vibrating tube method

CNC(N)=O [methylurea] + O
Details | mass density [kg/m3]
274.15 K, x1 = 0.00244 | 1001.77 ± 0.13
274.15 K, x1 = 0.00291 | 1002.12 ± 0.13
274.15 K, x1 = 0.00483 | 1003.58 ± 0.13
274.15 K, x1 = 0.00553 | 1004.11 ± 0.13
274.15 K, x1 = 0.00799 | 1005.96 ± 0.13
274.15 K, x1 = 0.00834 | 1006.21 ± 0.13
274.15 K, x1 = 0.01081 | 1008.05 ± 0.13
274.15 K, x1 = 0.01421 | 1010.56 ± 0.13
275.15 K, x1 = 0.00244 | 1001.8 ± 0.13
275.15 K, x1 = 0.00291 | 1002.15 ± 0.13
275.15 K, x1 = 0.00483 | 1003.6 ± 0.13
275.15 K, x1 = 0.00553 | 1004.13 ± 0.13
275.15 K, x1 = 0.00799 | 1005.98 ± 0.13
275.15 K, x1 = 0.00834 | 1006.23 ± 0.13
275.15 K, x1 = 0.01081 | 1008.07 ± 0.13
275.15 K, x1 = 0.01421 | 1010.58 ± 0.13
276.15 K, x1 = 0.00244 | 1001.82 ± 0.13
276.15 K, x1 = 0.00291 | 1002.17 ± 0.13
276.15 K, x1 = 0.00483 | 1003.62 ± 0.13
276.15 K, x1 = 0.00553 | 1004.14 ± 0.15
276.15 K, x1 = 0.00799 | 1005.98 ± 0.13
276.15 K, x1 = 0.00834 | 1006.24 ± 0.15
276.15 K, x1 = 0.01081 | 1008.06 ± 0.13
276.15 K, x1 = 0.01421 | 1010.58 ± 0.13
277.15 K, x1 = 0.00244 | 1001.82 ± 0.13
277.15 K, x1 = 0.00291 | 1002.17 ± 0.13
277.15 K, x1 = 0.00483 | 1003.61 ± 0.13
277.15 K, x1 = 0.00553 | 1004.13 ± 0.13
277.15 K, x1 = 0.00799 | 1005.97 ± 0.13
277.15 K, x1 = 0.00834 | 1006.23 ± 0.13
277.15 K, x1 = 0.01081 | 1008.05 ± 0.13
277.15 K, x1 = 0.01421 | 1010.54 ± 0.13
278.15 K, x1 = 0.00244 | 1001.8 ± 0.13
278.15 K, x1 = 0.00291 | 1002.15 ± 0.13
278.15 K, x1 = 0.00483 | 1003.58 ± 0.13
278.15 K, x1 = 0.00553 | 1004.1 ± 0.13
278.15 K, x1 = 0.00799 | 1005.92 ± 0.13
278.15 K, x1 = 0.00834 | 1006.18 ± 0.13
278.15 K, x1 = 0.01081 | 1007.99 ± 0.13
278.15 K, x1 = 0.01421 | 1010.45 ± 0.13
278.15 K, x1 = 0.01662 | 1012.18 ± 0.13
278.15 K, x1 = 0.019 | 1013.89 ± 0.13
278.15 K, x1 = 0.02321 | 1016.84 ± 0.13
278.15 K, x1 = 0.03185 | 1022.7 ± 0.13
278.15 K, x1 = 0.04218 | 1029.47 ± 0.13
278.15 K, x1 = 0.05184 | 1035.47 ± 0.13
278.15 K, x1 = 0.06068 | 1040.78 ± 0.14
278.15 K, x1 = 0.07071 | 1046.57 ± 0.14
279.15 K, x1 = 0.00244 | 1001.76 ± 0.13
279.15 K, x1 = 0.00291 | 1002.11 ± 0.13
279.15 K, x1 = 0.00483 | 1003.53 ± 0.13
279.15 K, x1 = 0.00553 | 1004.05 ± 0.13
279.15 K, x1 = 0.00799 | 1005.86 ± 0.13
279.15 K, x1 = 0.00834 | 1006.11 ± 0.13
279.15 K, x1 = 0.01081 | 1007.92 ± 0.13
279.15 K, x1 = 0.01421 | 1010.37 ± 0.13
280.15 K, x1 = 0.00244 | 1001.71 ± 0.13
280.15 K, x1 = 0.00291 | 1002.05 ± 0.13
280.15 K, x1 = 0.00483 | 1003.47 ± 0.13
280.15 K, x1 = 0.00553 | 1003.98 ± 0.13
280.15 K, x1 = 0.00799 | 1005.78 ± 0.13
280.15 K, x1 = 0.00834 | 1006.03 ± 0.13
280.15 K, x1 = 0.01081 | 1007.83 ± 0.13
280.15 K, x1 = 0.01421 | 1010.26 ± 0.13
281.15 K, x1 = 0.00244 | 1001.65 ± 0.13
281.15 K, x1 = 0.00291 | 1001.99 ± 0.13
281.15 K, x1 = 0.00483 | 1003.39 ± 0.13
281.15 K, x1 = 0.00553 | 1003.9 ± 0.13
281.15 K, x1 = 0.00799 | 1005.7 ± 0.13
281.15 K, x1 = 0.00834 | 1005.95 ± 0.13
281.15 K, x1 = 0.01081 | 1007.72 ± 0.13
281.15 K, x1 = 0.01421 | 1010.15 ± 0.13
282.15 K, x1 = 0.00244 | 1001.57 ± 0.13
282.15 K, x1 = 0.00291 | 1001.91 ± 0.13
282.15 K, x1 = 0.00483 | 1003.31 ± 0.13
282.15 K, x1 = 0.00553 | 1003.81 ± 0.13
282.15 K, x1 = 0.00799 | 1005.59 ± 0.13
282.15 K, x1 = 0.00834 | 1005.84 ± 0.13
282.15 K, x1 = 0.01081 | 1007.61 ± 0.13
282.15 K, x1 = 0.01421 | 1010.02 ± 0.13
283.15 K, x1 = 0.00244 | 1001.47 ± 0.13
283.15 K, x1 = 0.00291 | 1001.81 ± 0.13
283.15 K, x1 = 0.00483 | 1003.2 ± 0.13
283.15 K, x1 = 0.00553 | 1003.71 ± 0.13
283.15 K, x1 = 0.00799 | 1005.48 ± 0.13
283.15 K, x1 = 0.00834 | 1005.72 ± 0.13
283.15 K, x1 = 0.01081 | 1007.48 ± 0.13
283.15 K, x1 = 0.01421 | 1009.88 ± 0.13
288.15 K, x1 = 0.00244 | 1000.82 ± 0.15
288.15 K, x1 = 0.00291 | 1001.15 ± 0.11
288.15 K, x1 = 0.00483 | 1002.51 ± 0.13
288.15 K, x1 = 0.00553 | 1003 ± 0.13
288.15 K, x1 = 0.00799 | 1004.72 ± 0.16
288.15 K, x1 = 0.00834 | 1004.96 ± 0.11
288.15 K, x1 = 0.01081 | 1006.67 ± 0.13
288.15 K, x1 = 0.01421 | 1009.02 ± 0.13
288.15 K, x1 = 0.01662 | 1010.63 ± 0.13
288.15 K, x1 = 0.019 | 1012.22 ± 0.13
288.15 K, x1 = 0.02321 | 1015 ± 0.13
288.15 K, x1 = 0.03185 | 1020.53 ± 0.13
288.15 K, x1 = 0.04218 | 1026.9 ± 0.13
288.15 K, x1 = 0.05184 | 1032.59 ± 0.13
288.15 K, x1 = 0.06068 | 1037.58 ± 0.13
288.15 K, x1 = 0.07071 | 1043.01 ± 0.14
298.15 K, x1 = 0.00244 | 998.69 ± 0.17
298.15 K, x1 = 0.00291 | 999 ± 0.11
298.15 K, x1 = 0.00483 | 1000.3 ± 0.12
298.15 K, x1 = 0.00553 | 1000.76 ± 0.13
298.15 K, x1 = 0.00799 | 1002.41 ± 0.18
298.15 K, x1 = 0.00834 | 1002.63 ± 0.11
298.15 K, x1 = 0.01081 | 1004.26 ± 0.13
298.15 K, x1 = 0.01421 | 1006.48 ± 0.13
298.15 K, x1 = 0.01662 | 1008.05 ± 0.13
298.15 K, x1 = 0.019 | 1009.57 ± 0.13
298.15 K, x1 = 0.02321 | 1012.2 ± 0.13
298.15 K, x1 = 0.03185 | 1017.45 ± 0.13
298.15 K, x1 = 0.04218 | 1023.52 ± 0.13
298.15 K, x1 = 0.05184 | 1028.96 ± 0.13
298.15 K, x1 = 0.06068 | 1033.74 ± 0.13
298.15 K, x1 = 0.07071 | 1038.96 ± 0.14
308.15 K, x1 = 0.00244 | 995.62 ± 0.18
308.15 K, x1 = 0.00291 | 995.92 ± 0.11
308.15 K, x1 = 0.00483 | 997.16 ± 0.12
308.15 K, x1 = 0.00553 | 997.61 ± 0.13
308.15 K, x1 = 0.00799 | 999.19 ± 0.2
308.15 K, x1 = 0.00834 | 999.41 ± 0.12
308.15 K, x1 = 0.01081 | 1000.97 ± 0.13
308.15 K, x1 = 0.01421 | 1003.1 ± 0.13
308.15 K, x1 = 0.01662 | 1004.61 ± 0.13
308.15 K, x1 = 0.019 | 1006.07 ± 0.13
308.15 K, x1 = 0.02321 | 1008.61 ± 0.13
308.15 K, x1 = 0.03185 | 1013.65 ± 0.13
308.15 K, x1 = 0.04218 | 1019.45 ± 0.13
308.15 K, x1 = 0.05184 | 1024.66 ± 0.13
308.15 K, x1 = 0.06068 | 1029.26 ± 0.13
308.15 K, x1 = 0.07071 | 1034.27 ± 0.13
323.15 K, x1 = 0.00244 | 989.55 ± 0.17
323.15 K, x1 = 0.00291 | 989.84 ± 0.11
323.15 K, x1 = 0.00483 | 991.02 ± 0.12
323.15 K, x1 = 0.00553 | 991.45 ± 0.13
323.15 K, x1 = 0.00799 | 992.95 ± 0.19
323.15 K, x1 = 0.00834 | 993.16 ± 0.12
323.15 K, x1 = 0.01081 | 994.63 ± 0.13
323.15 K, x1 = 0.01421 | 996.66 ± 0.13
323.15 K, x1 = 0.01662 | 998.09 ± 0.13
323.15 K, x1 = 0.019 | 999.47 ± 0.13
323.15 K, x1 = 0.02321 | 1001.87 ± 0.13
323.15 K, x1 = 0.03185 | 1006.67 ± 0.13
323.15 K, x1 = 0.04218 | 1012.19 ± 0.13
323.15 K, x1 = 0.05184 | 1017.13 ± 0.13
323.15 K, x1 = 0.06068 | 1021.48 ± 0.13
323.15 K, x1 = 0.07071 | 1026.24 ± 0.13
333.15 K, x1 = 0.00244 | 984.67 ± 0.13
333.15 K, x1 = 0.00291 | 984.95 ± 0.13
333.15 K, x1 = 0.00483 | 986.09 ± 0.13
333.15 K, x1 = 0.00553 | 986.51 ± 0.13
333.15 K, x1 = 0.00799 | 987.96 ± 0.13
333.15 K, x1 = 0.00834 | 988.16 ± 0.13
333.15 K, x1 = 0.01081 | 989.6 ± 0.13
333.15 K, x1 = 0.01421 | 991.56 ± 0.13
333.15 K, x1 = 0.01662 | 992.96 ± 0.13
333.15 K, x1 = 0.019 | 994.26 ± 0.13
333.15 K, x1 = 0.02321 | 996.6 ± 0.13
333.15 K, x1 = 0.03185 | 1001.3 ± 0.13
333.15 K, x1 = 0.04218 | 1006.7 ± 0.13
333.15 K, x1 = 0.05184 | 1011.49 ± 0.13
333.15 K, x1 = 0.06068 | 1015.72 ± 0.13
333.15 K, x1 = 0.07071 | 1020.32 ± 0.13
